The record followed here is US20220356186A1, “PERK INHIBITING PYRROLOPYRIMIDINE COMPOUNDS” (HiberCell, Inc., priority 2019, published 2022).

pIC50: −log10 of the molar value. Read-outs that look alike come from different tables or passages of the source.

Experiment [1] addresses T1, EIF2AK3 (PERK) catalytic domain (amino acids 536-1116) (Homo sapiens, UniProt Q9NZJ5).
T1 construct: EIF2AK3 (PERK) catalytic domain (amino acids 536-1116)
T1 sequence (Q9NZJ5 536-1116): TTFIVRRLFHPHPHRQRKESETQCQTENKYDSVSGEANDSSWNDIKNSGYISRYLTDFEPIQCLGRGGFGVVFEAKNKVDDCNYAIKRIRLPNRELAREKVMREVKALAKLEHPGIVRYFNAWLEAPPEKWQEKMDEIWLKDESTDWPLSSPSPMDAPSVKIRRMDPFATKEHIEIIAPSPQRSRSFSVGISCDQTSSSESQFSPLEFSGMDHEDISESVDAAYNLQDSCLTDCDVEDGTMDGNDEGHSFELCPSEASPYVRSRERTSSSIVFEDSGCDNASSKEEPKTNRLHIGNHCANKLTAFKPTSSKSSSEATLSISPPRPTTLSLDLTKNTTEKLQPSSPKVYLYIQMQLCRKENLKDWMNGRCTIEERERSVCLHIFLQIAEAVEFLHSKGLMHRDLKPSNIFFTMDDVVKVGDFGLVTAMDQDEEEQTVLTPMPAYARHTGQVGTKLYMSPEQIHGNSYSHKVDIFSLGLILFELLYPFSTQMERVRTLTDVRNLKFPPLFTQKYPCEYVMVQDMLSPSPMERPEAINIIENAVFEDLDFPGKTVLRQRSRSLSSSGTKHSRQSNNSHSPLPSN
In words: PERK in vitro activity assay (isolated), TR-FRET kinase assay. The format is biochemical. The following applies: isolated PERK enzyme, 1.5 μM ATP; read-out: Biochemical IC50. In outline: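 Human PERK catalytic domain (aa 536-1116) phosphorylating 100-200 nM GFP-eIF2a in 50 mM HEPES pH 7.5, 10 mM MgCl2, 1 mM EGTA, 0.01% Brij-35; enzyme-started, 45 min at room temperature. Stopped with 10 mM EDTA, 2 nM Tb-anti-phospho-eIF2a added for 90 min; IC50 from TR-FRET ratios by 4-parameter logistic fit.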

The subject of experiment [2] is GFP-eIF2α in HEK293 cells. In words: PERK cellular assay, TR-FRET in HEK293-EGFP-eIF2a cells after tunicamycin-induced ER stress. It is filed as cell-based. The following applies: HEK293-EGFP-eIF2a cells, tunicamycin 2 hours, read-out: Cellular eIF2α IC50. In outline: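 HEK293 cells stably expressing GFP-eIF2α, plated 5000 cells/well overnight, pretreated with inhibitors 30 min at 37 °C, then ER stress induced with tunicamycin […] for 2 h.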

Consider `Cc1nc(N)c2c(-c3ccc(NC(=O)C(O)c4cccc(Cl)c4)cc3C)cn(C)c2n1` (centres unmarked) [Example 38, N-(4-(4-amino-2,7-dimethyl-7H-pyrrolo[2,3-d]pyrimidin-5-yl)-3-methylphenyl)-2-(3-chlorophenyl)-2-hydroxyacetamide], for which the pIC50 in experiment [1] is 7.00 to 7.29; in experiment [2], 6.00 to 6.30.
In the case of `Cc1cc(NC(=O)C(N)c2ccccc2)ccc1-c1cn(C)c2ncnc(N)c12` (centres unmarked) [Example 27, 2-amino-N-(4-(4-amino-7-methyl-7H-pyrrolo[2,3-d]pyrimidin-5-yl)-3-methylphenyl)-2-phenylacetamide], the pIC50 in experiment [1] is 6.60 to 7.00; in experiment [2] (Homo sapiens, HEK293, 2 h), 6.30 to 6.60.
The like results for `Cc1cc(NC(=O)Cc2ccccc2)ccc1-c1cn(C)c2ncnc(N)c12` [Example 137, N-(4-(4-amino-7-methyl-7H-pyrrolo[2,3-d]pyrimidin-5-yl)-3-methylphenyl)-2-phenylacetamide] were, in that order, 7.60 to 9.00 and 7.30 to 7.59.
In the case of `Cc1cc(NC(=O)C(O)c2ccccc2C)ccc1-c1cn(C)c2ncnc(N)c12` (centres unmarked) [Example 39, N-(4-(4-amino-7-methyl-7H-pyrrolo[2,3-d]pyrimidin-5-yl)-3-methylphenyl)-2-hydroxy-2-(o-tolyl)acetamide], the pIC50 in experiment [1] was 7.60 to 9.00; in experiment [2] (Homo sapiens, HEK293, 2 h), 7.30 to 7.59.
Turning to `Cc1cc(NC(=O)Cc2cccc3cnccc23)ccc1-c1cn(C)c2ncnc(N)c12` [Example 156, N-(4-(4-amino-7-methyl-7H-pyrrolo[2,3-d]pyrimidin-5-yl)-3-methylphenyl)-2-(isoquinolin-5-yl)acetamide], the pIC50 in experiment [1] was 7.00 to 7.29; in experiment [2] (Homo sapiens, HEK293, 2 h), 6.30 to 6.60.
As to `CCc1cccc(C(O)C(=O)Nc2ccc(-c3cn(C)c4nc(C)nc(N)c34)c(C)c2)c1` (centres unmarked) [Example 43, N-(4-(4-amino-2,7-dimethyl-7H-pyrrolo[2,3-d]pyrimidin-5-yl)-3-methylphenyl)-2-(3-ethylphenyl)-2-hydroxyacetamide], the pIC50 in experiment [1] and in experiment [2] was 7.60 to 9.00 each time.
For the compound `Cn1cc(-c2ccc(NC(=O)C(O)c3cccc(F)c3)cc2OC(F)(F)F)c2c(N)ncnc21` (centres unmarked) [Example 18, N-(4-(4-amino-7-methyl-7H-pyrrolo[2,3-d]pyrimidin-5-yl)-3-(trifluoromethoxy)phenyl)-2-(3-fluorophenyl)-2-hydroxyacetamide], the negative-log IC50 (pIC50) in experiment [1] is 7.60 to 9.00; in experiment [2] (Homo sapiens, HEK293, 2 h) it was 6.60 to 7.00.
The matching figures for `COC(C(=O)Nc1ccc(-c2cn(C)c3ncnc(N)c23)c(C)c1)c1ccccc1` (centres unmarked) [Example 8, N-(4-(4-amino-7-methyl-7H-pyrrolo[2,3-d]pyrimidin-5-yl)-3-methylphenyl)-2-methoxy-2-phenylacetamide]: 7.60 to 9.00 and 6.60 to 7.00.
`Cc1nc(N)c2c(-c3ccc(NC(=O)C(O)c4ccccc4C(F)(F)F)cc3F)cn(C)c2n1` (centres unmarked) [Example 77, N-(4-(4-amino-2,7-dimethyl-7H-pyrrolo[2,3-d]pyrimidin-5-yl)-3-fluorophenyl)-2-hydroxy-2-(2-(trifluoromethyl)phenyl)acetamide]: the pIC50 in experiment [1] was 7.30 to 7.59; in experiment [2] (Homo sapiens, HEK293, 2 h), 6.00 to 6.30.
On to `CCc1cccc(C(O)C(=O)Nc2ccc(-c3cn(C)c4nc(C)nc(N)c34)c(Cl)c2)c1` (centres unmarked) [Example 97, N-(4-(4-amino-2,7-dimethyl-7H-pyrrolo[2,3-d]pyrimidin-5-yl)-3-chlorophenyl)-2-(3-ethylphenyl)-2-hydroxyacetamide], for which the pIC50 in experiment [1] and in experiment [2] was 7.60 to 9.00 throughout.
